The results in this text go back to patent publication US20250206730A1 (AUTOTELIC BIO INC., priority 2022, published 2025).

The test has as its system TGF-β signaling. Description: Assay for evaluating cellular inhibition of TGF-β signaling, 4T1 (SBE-luc2P) luciferase reporter. The test is classed as cell-based. The note with it: Mus musculus, 4T1, 4T1 (SBE-luc2P) transient pool, 0.2% FBS, 2 h pre-treatment, TGF-β1 2 ng/mL 24 h; read-out: IC50 4T1 Cell. How it is done: [Example 2] Assay for Evaluating Cellular Inhibition of TGF-β Signaling
4T1 (SBE-luc2P) transient pool that have SBE-luc2P (hygro) expression plasmid or HEK293 (SBE reporter) stable cells (BPS bioscience) were seeded at 6×10^3 cells/well or 2.5×10^4 cells/well in 96-well plate, respectively. 4T1 (SBE-luc2P) transient pool were pre-treated with novel compound synthesized in Example 1 above in 0.2% FBS at approximately 60% confluence at 37° C. in 5% CO2. Also, HEK293 (SBE reporter) stable cells were pre-treated with each test compounds of formula in 0.5% FBS at approximately 80% confluence at 37° C. in 5% CO2. After 2 hours, cells were treated with TGF-β1 (2 ng/mL) for 24 h at 37° C. in 5% CO2. Cell lysates were prepared using Luciferase Assay (Promega) according to the manufacturer's instruction, and luminescence was measured by a plate reader, Biotek Synergy H1 (Vermont, USA).
In general terms: Reporter assays use an easily measured gene product as a stand-in for the process of interest.

By IC50 is commonly meant the midpoint of a concentration-inhibition curve. Regarding `Nc1nc(-c2ccccc2)c(Oc2ccnc(Nc3cccnc3)c2)s1` [A-6, 4-Phenyl-5-((2-(pyridin-3-ylamino)pyridin-4-yl)oxy)thiazol-2-amine], the IC50 was greater than 100 nM.

With `Nc1nc(-c2ccccc2)c(Oc2ccnc(Nc3ccc(F)nc3)c2)s1` [A-7, 5-((2-((6-Fluoropyridin-3-yl)amino)pyridin-4-yl)oxy)-4-phenylthiazol-2-amine], the IC50 is greater than 100 nM.

For the compound `Nc1nc(-c2ccccc2)c(Oc2ccnc(Nc3ccncc3)c2)s1` [A-8, 4-Phenyl-5-((2-(pyridin-4-ylamino)pyridin-4-yl)oxy)thiazol-2-amine], the half-maximal inhibitory concentration (IC50) is greater than 100 nM.

In the case of `NC(=O)c1ccc(Nc2cc(Oc3sc(N)nc3-c3ccccc3)ccn2)cn1` [A-11, 5-((4-((2-Amino-4-phenylthiazol-5-yl)oxy)pyridin-2-yl)amino)picolinamide], the IC50 was greater than 100 nM.

`CNS(=O)(=O)c1cccc(Nc2cc(Oc3sc(N)nc3-c3ccccc3)ccn2)c1` [A-12, 3-((4-((2-Amino-4-phenylthiazol-5-yl)oxy)pyridin-2-yl)amino)-N-methylbenzenesulfonamide]: the concentration for half-maximal inhibition (IC50) was less than 100 nM.

Consider `CN(C)S(=O)(=O)c1cccc(Nc2cc(Oc3sc(N)nc3-c3ccccc3)ccn2)c1` [A-13, 3-((4-((2-Amino-4-phenylthiazol-5-yl)oxy)pyridin-2-yl)amino)-N,N-dimethylbenzenesulfonamide], for which the IC50 is less than 100 nM.

As for `CS(=O)(=O)c1cccc(Nc2cc(Oc3sc(N)nc3-c3ccccc3)ccn2)c1` [A-15, 5-((2-((3-(Methylsulfonyl)phenyl)amino)pyridin-4-yl)oxy)-4-phenylthiazol-2-amine], the 50% inhibitory concentration (IC50) is less than 100 nM.

`Nc1nc(-c2ccccc2)c(Oc2ccnc(Nc3cccc(NS(=O)(=O)C4CC4)c3)c2)s1` [A-16, N-(3-((4-((2-Amino-4-phenylthiazol-5-yl)oxy)pyridin-2-yl)amino)phenyl)cyclopropanesulfonamide]: the concentration for half-maximal inhibition (IC50) is less than 100 nM.

`Nc1nc(-c2ccccc2)c(Oc2ccnc(Nc3cccc(S(=O)(=O)C(F)(F)F)c3)c2)s1` [A-17, 4-Phenyl-5-((2-((3-((trifluoromethyl)sulfonyl)phenyl)amino)pyridin-4-yl)oxy)thiazol-2-amine]: the concentration for half-maximal inhibition (IC50) was greater than 100 nM.

Take `Nc1nc(-c2ccccc2)c(Oc2ccnc(Nc3cccc(S(=O)(=O)O)c3)c2)s1` [A-18, 3-((4-((2-Amino-4-phenylthiazol-5-yl)oxy)pyridin-2-yl)amino)benzenesulfonic acid]: the half-maximal inhibitory concentration (IC50) was greater than 100 nM.

Take `CS(=O)(=O)Cc1cccc(Nc2cc(Oc3sc(N)nc3-c3ccccc3)ccn2)c1` [A-19, 5-((2-((3-((Methylsulfonyl)methyl)phenyl)amino)pyridin-4-yl)oxy)-4-phenylthiazol-2-amine]: the 50% inhibitory concentration (IC50) is less than 100 nM.

As for `Nc1nc(-c2ccccc2)c(Oc2ccnc(Nc3cccc(S(=O)(=O)NC4CC4)c3)c2)s1` [A-20, 3-((4-((2-Amino-4-phenylthiazol-5-yl)oxy)pyridin-2-yl)amino)-N-cyclopropylbenzenesulfonamide], the IC50 was less than 100 nM.

Turning to `Nc1nc(-c2ccccc2)c(Oc2ccnc(NCc3cccc(F)c3)c2)s1` [A-21, 5-((2-((3-Fluorobenzyl)amino)pyridin-4-yl)oxy)-4-phenylthiazol-2-amine], the IC50 was greater than 100 nM.

In the case of `NC(=O)c1ccnc(Nc2cc(Oc3sc(N)nc3-c3ccccc3)ccn2)c1` [A-22, 2-((4-((2-Amino-4-phenylthiazol-5-yl)oxy)pyridin-2-yl)amino)isonicotinamide], the IC50 is less than 100 nM.

As for `CNC(=O)c1cccc(Nc2cc(Oc3sc(N)nc3-c3ccccc3)ccn2)c1` [A-23, 3-((4-((2-Amino-4-phenylthiazol-5-yl)oxy)pyridin-2-yl)amino)-N-methylbenzamide], the IC50 was less than 100 nM.

Take `COc1cc(Nc2cc(Oc3sc(N)nc3-c3ccccc3)ccn2)ccn1` [A-24, 5-((2-((2-Methoxypyridin-4-yl)amino)pyridin-4-yl)oxy)-4-phenylthiazol-2-amine]: the IC50 was less than 100 nM.

For the compound `Nc1nc(-c2ccccc2)c(Oc2ccnc(NCc3ccccc3)c2)s1` [A-25, 5-((2-(Benzylamino)pyridin-4-yl)oxy)-4-phenylthiazol-2-amine], the IC50 is greater than 100 nM.

For `Nc1nc(-c2ccccc2)c(Oc2ccnc(NCc3ccncc3)c2)s1` [A-26, 4-Phenyl-5-((2-((pyridin-4-ylmethyl)amino)pyridin-4-yl)oxy)thiazol-2-amine], the concentration for half-maximal inhibition (IC50) is greater than 100 nM.

Turning to `Nc1nc(-c2ccccc2)c(Oc2ccnc(Nc3ccnc(Cl)c3)c2)s1` [A-27, 5-((2-((2-Chloropyridin-4-yl)amino)pyridin-4-yl)oxy)-4-phenylthiazol-2-amine], the half-inhibitory concentration (IC50) was greater than 100 nM.

Consider `Nc1nc(-c2ccccc2)c(Oc2ccnc(NCc3cccnc3)c2)s1` [A-28, 4-Phenyl-5-((2-((pyridin-3-ylmethyl)amino)pyridin-4-yl)oxy)thiazol-2-amine], for which the half-maximal inhibitory concentration (IC50) is greater than 100 nM.

On to `Nc1nc(-c2ccccc2)c(Oc2ccnc(Nc3ccnc(F)c3)c2)s1` [A-30, 5-((2-((2-Fluoropyridin-4-yl)amino)pyridin-4-yl)oxy)-4-phenylthiazol-2-amine], for which the IC50 was greater than 100 nM.

On to `COc1ccc(Nc2cc(Oc3sc(N)nc3-c3ccccc3)ccn2)cn1` [A-31, 5-((2-((6-Methoxypyridin-3-yl)amino)pyridin-4-yl)oxy)-4-phenylthiazol-2-amine], for which the IC50 was greater than 100 nM.

On to `NC(=O)c1cncc(Nc2cc(Oc3sc(N)nc3-c3ccccc3)ccn2)c1` [A-32, 5-((4-((2-Amino-4-phenylthiazol-5-yl)oxy)pyridin-2-yl)amino)nicotinamide], for which the 50% inhibitory concentration (IC50) was greater than 100 nM.

For `NC(=O)c1cccc(Nc2cc(Oc3sc(N)nc3-c3ccccc3)ccn2)n1` [A-33, 6-((4-((2-Amino-4-phenylthiazol-5-yl)oxy)pyridin-2-yl)amino)picolinamide], the IC50 was less than 100 nM.

On to `CCS(=O)(=O)c1cccc(Nc2cc(Oc3sc(N)nc3-c3ccccc3)ccn2)c1` [A-34, 5-((2-((3-(Ethylsulfonyl)phenyl)amino)pyridin-4-yl)oxy)-4-phenylthiazol-2-amine], for which the 50% inhibitory concentration (IC50) is less than 100 nM.

In the case of `Nc1nc(-c2ccccc2)c(Oc2ccnc(Nc3ccc(Cl)nc3)c2)s1` [A-35, 5-((2-((6-Chloropyridin-3-yl)amino)pyridin-4-yl)oxy)-4-phenylthiazol-2-amine], the IC50 is greater than 100 nM.

Turning to `Nc1nc(-c2ccccc2)c(Oc2ccnc(Nc3cccc(NS(=O)(=O)C(F)(F)F)c3)c2)s1` [A-36, N-(3-((4-((2-Amino-4-phenylthiazol-5-yl)oxy)pyridin-2-yl)amino)phenyl)-1,1,1-trifluoromethanesulfonamide], the IC50 was less than 100 nM.

With `Cn1cc(Nc2cc(Oc3sc(N)nc3-c3ccccc3)ccn2)cn1` [A-37, 5-((2-((1-Methyl-1H-pyrazol-4-yl)amino)pyridin-4-yl)oxy)-4-phenylthiazol-2-amine], the IC50 is greater than 100 nM.

In the case of `Nc1nc(-c2ccccc2)c(Oc2ccnc(Nc3cn[nH]c3)c2)s1` [A-38, 5-((2-((1H-Pyrazol-4-yl)amino)pyridin-4-yl)oxy)-4-phenylthiazol-2-amine], the IC50 was greater than 100 nM.

Take `CS(=O)(=O)n1cc(Nc2cc(Oc3sc(N)nc3-c3ccccc3)ccn2)cn1` [A-62, 5-((2-((1-(Methylsulfonyl)-1H-pyrazol-4-yl)amino)pyridin-4-yl)oxy)-4-phenylthiazol-2-amine]: the concentration for half-maximal inhibition (IC50) was greater than 100 nM.

As to `Cc1nc(-c2ccccc2)c(Oc2ccnc(Nc3cccc(C(=O)N(C)C)c3)c2)s1` [A-67, N,N-Dimethyl-3-((4-((2-methyl-4-phenylthiazol-5-yl)oxy)pyridin-2-yl)amino)benzamide], the 50% inhibitory concentration (IC50) is less than 100 nM.

For the compound `CNS(=O)(=O)c1cccc(Nc2cc(Oc3sc(C)nc3-c3ccccc3)ccn2)c1` [A-73, N-Methyl-3-((4-((2-methyl-4-phenylthiazol-5-yl)oxy)pyridin-2-yl)amino)benzenesulfonamide], the 50% inhibitory concentration (IC50) is less than 100 nM.

Turning to `Cc1nc(-c2ccccc2)c(Oc2ccnc(Nc3cccc(S(=O)(=O)N(C)C)c3)c2)s1` [A-74, N,N-Dimethyl-3-((4-((2-methyl-4-phenylthiazol-5-yl)oxy)pyridin-2-yl)amino)benzenesulfonamide], the concentration for half-maximal inhibition (IC50) is less than 100 nM.

As for `Cc1nc(-c2ccccc2)c(Oc2ccnc(Nc3cccc(NS(=O)(=O)C4CC4)c3)c2)s1` [A-75, N-(3-((4-((2-Methyl-4-phenylthiazol-5-yl)oxy)pyridin-2-yl)amino)phenyl)cyclopropanesulfonamide], the IC50 was less than 100 nM.

Consider `Cc1nc(-c2ccccc2)c(Oc2ccnc(Nc3cccc(S(=O)(=O)NC4CC4)c3)c2)s1` [A-76, N-Cyclopropyl-3-((4-((2-methyl-4-phenylthiazol-5-yl)oxy)pyridin-2-yl)amino)benzenesulfonamide], for which the IC50 was less than 100 nM.

For the compound `CCS(=O)(=O)c1cccc(Nc2cc(Oc3sc(C)nc3-c3ccccc3)ccn2)c1` [A-77, N-(3-(Ethylsulfonyl)phenyl)-4-((2-methyl-4-phenylthiazol-5-yl)oxy)pyridin-2-amine], the IC50 was less than 100 nM.

As to `Cc1nc(-c2ccccc2)c(Oc2ccnc(Nc3cccc(CS(C)(=O)=O)c3)c2)s1` [A-79, 4-((2-Methyl-4-phenylthiazol-5-yl)oxy)-N-(3-((methylsulfonyl)methyl)phenyl)pyridin-2-amine], the IC50 is less than 100 nM.

Regarding `Cc1nc(-c2ccccc2)c(Oc2ccnc(NCc3ccncc3)c2)s1` [A-80, 4-((2-Methyl-4-phenylthiazol-5-yl)oxy)-N-(pyridin-4-ylmethyl)pyridin-2-amine], the IC50 is greater than 100 nM.
